{"source": "paper PMC4728560", "about": "(Scientific Reports, 2016)", "key": {"[1]": {"tested_on": "thymocytes from TCTP^+/− mice", "experiment": "Complementation (viability) of γ-irradiated TCTP+/− thymocytes", "format": "cell-based, mouse", "settings": "γ-irradiation 2.5 Gy; overnight culture; 0 to 1000 nM", "excerpt": "Figure 4 Molecular/functional analysis of the h1 (P1) subregion of BH3-TCTP. […]\nPeptides used for in vitro assays:\nWT-TCTP (11-31): […]\nR21A-TCTP (11-31): […]\nHybrid Bax/TCTP: […]\nPeptides used for in vivo assays:\nWT-TCTP (1-31) : […]\nHybrid Bax-TCTP: […]\nTCTP-FLAG peptides used for in vivo assays:\nWT-TCTP (1-31)-FLAG : […] DYKDDDDK-OH\nTCTP-Bax-TCTP-FLAG: […]-OH […]\nsubdomain in the BH3 motif is underlined. Peptides were purchased from Smartox […]\nComplementation and transduction experiments\nIn order to complement the haploinsufficient TCTP+/- mice with exogenous TCTP, we took advantage of the fact that the first N-terminal fragment of TCTP functions as a Protein Transduction Domain (PTD), enabling TCTP to penetrate into the cell by a mechanism hitherto […]\nnot well understood23,27-29. […]\nof γ irradiation) and cultured, at a concentration of 10^7 cells/ml, overnight in the presence of […]\n20) at concentrations ranging from 0-1000nM. For the transduction assays using WT-TCTP- […]\nconcentrations were 10 microM, 50 microM and 100 microM.\nγ-irradiated thymocytes were fixed by adding 500ul of PFA 4% and incubated for 20 min at room temperature. The cells were washed twice with PBS and permeabilized for 10 min with 0.2% triton X-100 in PBS at room temp. The cells were washed twice with PBS. Proteins were blocked in Blocking buffer (1% BSA 0.5% Tween in PBS) 1h at room temperature. The primary antibody was added with blocking buffer and placed in a rotating wheel overnight in a cold room.\nCells were then washed 3 times with PBS and incubated with secondary antibody with blocking buffer 1h at room temperature. The cells were washed 3 times with PBS and suspended in 200 µL PBS and used for Flow Cytometry or further used for immunohistochemistry: 5 µl of each sample were mixed with 5 µl of ProLong® Gold antifade reagent (Life Technologies) and visualized, using the IX73 inverted fluorescence microscope and the cellSens™ Dimension […]\nFACS analysis (BD Accuri™ C6 Cytometer (BD Biosciences) of incorporation of exogenous"}, "[2]": {"tested_on": "Bax mediated cytochrome c release, Bcl-xL", "experiment": "Cytochrome c release from purified mitochondria by tBid and Bax in the presence of Bcl-xL", "format": "biochemical", "settings": "mouse liver mitochondria; 5 nM tBid, 50 nM Bax, 300 nM Bcl-xL; 15 min, 30 °C; Western blot; pre-incubation pH 9, 30 °C", "protocol": "(A–E) in vitro reconstitution assay on liposome permeabilization. […] The treated Bcl-xL was then added to reactions containing ANTS-DPX liposomes, 100 nM Bax and 20 nM of either cBid (A,B) or cBidmt1(C,D) at pH 7. Liposome permeabilization was quantified by fluorescence after 5h incubation at 37 °C where 100% release was defined as the fluorescence change due to lipid solubilization with 1% Triton X-100. […] Error bars, std. dev. n = 3. To compare between the TCTP treated groups and the Control group statistically, two-way ANOVA test was performed for (A–D) and one-way ANOVA test was performed for (E). […] Colored asterisks above each data point indicate the statistical significance (*p < 0.05; **p < 0.01, no asterisks if p ≥ 0.05). A complete statistical analysis is provided in Supplementary Table 2–4. […] Cyto c extra-mito: in the supernatant, analysed by Western blot. […]\nto highlight the pre-incubation), pH 9, 30 C° before being added to the mitochondria at their final concentrations. […] Cytochrome c was detected in the mitochondrial fraction (Cyto c intra-mito) or in the supernatant (Cyto c extra-mito) by Western blot analysis. […]\nCytochrome c release assay. […] Mitochondrial pellets and the corresponding supernatant fractions were subjected to SDS-polyacrylamide gel electrophoresis and analyzed by Western blotting for cytochrome c."}}}
{"substance": "TCTP: Translationally Controlled Tumor Protein (TCTP/tpt1), recombinant full-length", "values": [{"measurement": "rescue of TCTP+/− haploinsufficient phenotype / anti-apoptotic function", "setting": "[1]", "result": "rescue completely the TCTP^+/− haploinsufficient phenotype"}, {"measurement": "inhibition of cytochrome c release in the presence of Bcl-xL", "setting": "[2]", "result": "inhibit cytochrome c release in a concentration-dependent manner"}]}
